{"source": "patent US20060013770A1", "about": "“Method for screening for compounds as potential sedatives or anxiolytics” (priority 2002, published 2006)", "key": {"HPA axis [1]": {"tested_on": "HPA axis", "assay": "Effect on plasma corticosterone (HPA axis activity) in mice, radioimmunoassay", "type": "in vivo, NMRI mice"}, "HPA axis [2]": {"tested_on": "HPA axis", "assay": "Time course of the effect on the HPA axis (plasma ACTH and corticosterone), FIG. 2", "type": "in vivo", "settings": "10 mg/kg", "experimental": "One example of measuring the activity of the HPA axis is as follows: The animal Is treated with the NCE and sacrificed within an hour. As the release of ACTH occurs within an hour after the stimulation of the CRF neurons, animals are sacrificed at t=0, 5, 15, 30 and 60 minutes after administration. Trunk blood is taken, serum separated and levels of ACTH is measured in the serum by specific radioimmunoassay. Similarly, the level of glucocortcosteroids are determined at t=0, 30, 60, and 120 minutes (the response occurs somewhat later than ACTH) using a radioimmunoassay."}, "HPA axis [3]": {"tested_on": "HPA axis", "settings": "at the level of the hypothalamic CRF neurons; cited from earlier work"}, "[4]": {"settings": "i.p., 60 minutes after administration"}}, "data": [{"smiles": "Cn1ncnc1COc1nn2c(-c3cc(F)ccc3F)nnc2cc1C(C)(C)C", "note": "[L-838,417]", "values": [{"measurement": "effect on plasma corticosterone", "setting": "HPA axis [1]; 12.5 mg/kg, 2 h after administration", "value": "no effects on plasma corticosterone was observed"}, {"measurement": "effect on corticosterone", "setting": "HPA axis [1]; i.p., doses up to 12.5 mg/kg, 60 minutes after administration", "value": "no effect"}]}, {"smiles": "Cc1ccc(-c2nc3ccc(C)cn3c2CC(=O)N(C)C)cc1", "note": "[Zolpidem, zolpidem]", "values": [{"measurement": "time course of plasma ACTH and corticosterone", "setting": "HPA axis [2]", "value": "The rise in plasma ACTH precedes the rise in corticosterone"}, {"measurement": "effect on plasma corticosterone at 25 mg/kg compared with 12.5 mg/kg", "setting": "HPA axis [1]; i.p., 25 mg/kg, 60 minutes after administration", "value": "not further increased"}, {"measurement": "dose at which the effect on plasma corticosterone reached a maximum", "setting": "HPA axis [1]; [4]", "value": 12.5, "unit": "mg/kg"}, {"measurement": "doses from which plasma corticosterone is significantly increased", "setting": "HPA axis [1]; [4]", "value": "≥ 0.5", "unit": "mg/kg"}, {"measurement": "effect on plasma corticosterone", "setting": "HPA axis [1]; i.p., 60 minutes after administration, increasing doses", "value": "significantly and dose-dependently increased plasma corticosterone"}]}, {"smiles": "CN1C(=O)CN=C(c2ccccc2)c2cc(Cl)ccc21", "note": "[Diazepam]", "values": [{"measurement": "effect on the HPA axis", "setting": "HPA axis [3]", "value": "slightly stimulate the HPA axis"}]}]}
